Experiments:
Format in all cases: in vivo, human
Ox-LDL = assay: MARINE study, oxidized LDL; settings: MARINE ITT, week 12
Source text: (§1) Parameters (a)-(y) can be measured in accordance with any clinically acceptable methodology. For example, triglycerides, total cholesterol, HDL-C and fasting blood sugar can be sample from serum and analyzed using standard photometry techniques. VLDL-TG, LDL-C and VLDL-C can be calculated or determined using serum lipoprotein fractionation by preparative ultracentrifugation and subsequent quantitative analysis by refractometry or by analytic ultracentrifugal methodology. Apo A1, Apo B and hsCRP can be determined from serum using standard nephelometry techniques. Lipoprotein (a) can be determined from serum using standard turbidimetric immunoassay techniques. LDL particle number and particle size can be determined using nuclear magnetic resonance (NMR) spectrometry. Remnants lipoproteins and LDL-phospholipase A2 can be determined from EDTA plasma or serum and serum, respectively, using enzymatic immunoseparation techniques. Oxidized LDL, intercellular adhesion molecule-1 and interleukin-2 levels can be determined from serum using standard enzyme immunoassay techniques. These techniques are described in detail in standard textbooks, for example Tietz Fundamentals of Clinical Chemistry, 6th Ed. (Burtis, Ashwood and Borter Eds.), WB Saunders Company. […]

hsCRP [1] = assay: MARINE study, hsCRP (also by concomitant statin use)
Source text: (§2) Parameters (a)-(y) can be measured in accordance with any clinically acceptable methodology. For example, triglycerides, total cholesterol, HDL-C and fasting blood sugar can be sample from serum and analyzed using standard photometry techniques. VLDL-TG, LDL-C and VLDL-C can be calculated or determined using serum lipoprotein fractionation by preparative ultracentrifugation and subsequent quantitative analysis by refractometry or by analytic ultracentrifugal methodology. Apo A1, Apo B and hsCRP can be determined from serum using standard nephelometry techniques. Lipoprotein (a) can be determined from serum using standard turbidimetric immunoassay techniques. LDL particle number and particle size can be determined using nuclear magnetic resonance (NMR) spectrometry. Remnants lipoproteins and LDL-phospholipase A2 can be determined from EDTA plasma or serum and serum, respectively, using enzymatic immunoseparation techniques. Oxidized LDL, intercellular adhesion molecule-1 and interleukin-2 levels can be determined from serum using standard enzyme immunoassay techniques. These techniques are described in detail in standard textbooks, for example Tietz Fundamentals of Clinical Chemistry, 6th Ed. (Burtis, Ashwood and Borter Eds.), WB Saunders Company.
(§3) A multi-center, placebo-controlled randomized, double-blind, 12-week study with an open-label extension was performed to evaluate the efficacy and safety of AMR101 in patients with fasting triglyceride levels ≧500 mg/dL. The primary objective of the study was to determine the efficacy of AMR101 2 g daily and 4 g daily, compared to placebo, in lowering fasting TG levels in patients with fasting TG levels ≧500 mg/dL and ≦1500 mg/dL (≧5.65 mmol/L and ≦16.94 mmol/L).
(§4) The population for this study was men and women (women of childbearing potential will need to be on contraception or practice abstinence)>18 years of age with a body mass index ≦45 kg/m^2 who were not on lipid-altering therapy or were currently on lipid-altering therapy. Patients currently on statin therapy (with or without ezetimibe) were evaluated by the investigator as to whether this therapy can be safely discontinued at screening, or if it should be continued. If statin therapy (with or without ezetimibe) was to be continued, dose(s) must have been stable for ≧4 weeks prior to randomization. Patients taking non-statin, lipid-altering medications (niacin >200 mg/day, fibrates, fish oil, other products containing omega-3 fatty acids, or other herbal products or dietary supplements with potential lipid-altering effects), either alone or in combination with statin therapy (with or without ezetimibe), must have been able to safely discontinue non-statin, lipid-altering therapy at screening.
(§5) Approximately 240 patients were randomized at approximately 50 centers in North America, South America, Central America, Europe, India, and South Africa. The study was a 58- to 60-week, Phase 3, multi-center study consisting of 3 study periods: (1) A 6- to 8-week screening period that included a diet and lifestyle stabilization and washout period and a TG qualifying period; (2) A 12-week, double-blind, randomized, placebo-controlled treatment period; and (3) A 40-week, open-label, extension period.
(§6) After confirmation of qualifying fasting TG values, eligible patients entered a 12-week, randomized, double-blind treatment period. At Visit 4 (Week 0), patients were randomly assigned to 1 of the following treatment groups: • AMR101 2 g daily, • AMR101 4 g daily, or • Placebo.
(§7) Eligible patients were randomly assigned at Visit 4 (Week 0) to receive orally AMR101 2 g daily, AMR101 4 g daily, or placebo for the 12-week double-blind treatment period. AMR101 was provided in 1 g liquid-filled, oblong, gelatin capsules. The matching placebo capsule was filled with light liquid paraffin and contained 0 g of AMR101. […]

IL-6 = assay: MARINE study, IL-6; settings: MARINE ITT, week 12
Description: as §3, §4, §5, §6
as §7, with “AMR101. During the double-blind treatment period, patients took 2 capsules (AMR101 or matching placebo) in the morning and 2 in the evening for a total of 4 capsules per day.” for “AMR101.”

TG = TG in patients with diabetes mellitus-2 (Example 2); settings: 4 g/day, 12 weeks, on statin
Source text: as §1, with “Ed.” for “Ed. (Burtis, Ashwood and Borter Eds.), WB Saunders Company.”
The effect of >96% E-EPA on lipid and inflammatory parameters was evaluated in patients with fasting triglyceride levels ≧150 mg/dl and <499 mg/dl on concomitant statin therapy. […]

RLP-C = RLP-C in patients with diabetes mellitus-2 (Example 2); settings: 4 g/day, 12 weeks, on statin
Source text: as §2
(§8) The effect of >96% E-EPA on lipid and inflammatory parameters was evaluated in patients with fasting triglyceride levels ≧150 mg/dl and <499 mg/dl on concomitant statin therapy. Patients with diabetes mellitus-2 were randomized and treated with either 2 g/day >96% E-EPA, 4 g/day >96%, or placebo for twelve weeks. At the end of the treatment period, several diabetes efficacy endpoints were evaluated including, TG, LDL-C, non-HDL-C, VLDL-C, Lp-PLA2, Apo B, TC, HDL-C, VLDL-TG, hs-CRP, oxLDL, and RLP-C.

Lp-PLA2 = assay: MARINE study, Lp-PLA2; settings: MARINE ITT; 2 g/day; week 12
Source text: as §1

hsCRP [2] = assay: hsCRP in patients with diabetes mellitus-2 (Example 2); settings: 4 g/day, 12 weeks, on statin
Source text: as §2, §8

[3] = system: FPG, HbA1c, insulin and HOMA-IR; assay: Diabetes parameters (FPG, HbA1c, insulin, HOMA-IR) in patients with diabetes mellitus-2 (Example 2); settings: 4 g/day
Description: as §8

[4] = well-controlled diabetes (HbA1c < median of 6.8%)
[5] = less-controlled diabetes (HbA1c ≧ median of 6.8%)

Compound: CC/C=C\C/C=C\C/C=C\C/C=C\C/C=C\CCCC(=O)OCC [AMR101, all-cis eicosa-5,8,11,14,17-pentaenoic acid ethyl ester]
- Ox-LDL change from baseline (median) (Ox-LDL; 2 g/day): 0.4%
- Ox-LDL change from baseline (median) (Ox-LDL; 4 g/day): −3.0%
- hsCRP end-of-treatment value, median (hsCRP [1]; MARINE ITT, 2 g/day, week 12): 2.4 mg/L
- hsCRP change from baseline (median) (hsCRP [1]; MARINE ITT, 4 g/day, week 12): −2.5%
- hsCRP end-of-treatment value, median (hsCRP [1]; MARINE ITT, 4 g/day, week 12): 2.2 mg/L
- hsCRP median placebo-adjusted % change from baseline (hsCRP [1]; MARINE, no statin, AMR101 2 g/day vs placebo, P 0.8297): −2.7%
- hsCRP change from baseline, median % (hsCRP [1]; MARINE, no statin, AMR101 2 g/day, week 12): 31.7%
- hsCRP end-of-treatment value, median (hsCRP [1]; MARINE, no statin, AMR101 2 g/day, week 12, baseline 2.2): 2.5 mg/L
- hsCRP median placebo-adjusted % change from baseline (hsCRP [1]; MARINE, no statin, AMR101 4 g/day vs placebo, P 0.0311): −27.4%
- hsCRP change from baseline, median % (hsCRP [1]; MARINE, no statin, AMR101 4 g/day, week 12): 0.0%
- hsCRP end-of-treatment value, median (hsCRP [1]; MARINE, no statin, AMR101 4 g/day, week 12, baseline 2.2): 2.2 mg/L
- hsCRP median placebo-adjusted % change from baseline (hsCRP [1]; MARINE, statin, AMR101 2 g/day vs placebo, P 0.1707): −33.2%
- hsCRP change from baseline, median % (hsCRP [1]; MARINE, statin, AMR101 2 g/day, week 12): 11.7%
- hsCRP end-of-treatment value, median (hsCRP [1]; MARINE, statin, AMR101 2 g/day, week 12, baseline 1.5): 1.6 mg/L
- hsCRP median placebo-adjusted % change from baseline (hsCRP [1]; MARINE, statin, AMR101 4 g/day vs placebo, P 0.0098): −67.9%
- hsCRP change from baseline, median % (hsCRP [1]; MARINE, statin, AMR101 4 g/day, week 12): −30.6%
- hsCRP end-of-treatment value, median (hsCRP [1]; MARINE, statin, AMR101 4 g/day, week 12, baseline 1.9): 1.3 mg/L
- hsCRP median placebo-adjusted change from baseline (hsCRP [1]; MARINE, 2 g/day, with concomitant statin therapy): statistically insignificant
- hsCRP median placebo-adjusted change from baseline (hsCRP [1]; MARINE, 2 g/day, without concomitant statin therapy): statistically insignificant
- hsCRP median placebo-adjusted change from baseline (hsCRP [1]; MARINE, 4 g/day, with concomitant statin therapy): −67.9%
- hsCRP median placebo-adjusted change from baseline (hsCRP [1]; MARINE, 4 g/day, without concomitant statin therapy): −27.4%
- IL-6 change from baseline (median) (IL-6; 2 g/day): 3.4%
- IL-6 end-of-treatment value (median) (IL-6; 2 g/day): 3.0 pg/mL
- IL-6 change from baseline (median) (IL-6; 4 g/day): 0.3%
- IL-6 end-of-treatment value (median) (IL-6; 4 g/day): 2.4 pg/mL
- Median placebo-adjusted percent change in TG from baseline to study end (TG; total diabetes): −23.2%
- Median placebo-adjusted percent change in TG from baseline to study end (TG; [4]): −21.0%
- Median placebo-adjusted percent change in RLP-C from baseline to study end (RLP-C; [5]): −21.3%
- Median placebo-adjusted percent change in RLP-C from baseline to study end (RLP-C; total diabetes): −25.0%
- Median placebo-adjusted percent change in RLP-C from baseline to study end (RLP-C; [4]): −26.7%
- Lp-PLA2 change from baseline (median) (Lp-PLA2): −5.1%
- Median placebo-adjusted percent change in hsCRP from baseline to study end (hsCRP [2]; [5]): −34.6%
- Median placebo-adjusted percent change in hsCRP from baseline to study end (hsCRP [2]; total diabetes): −21.5%
- Median placebo-adjusted percent change in hsCRP from baseline to study end (hsCRP [2]; [4]): −4.0%
- Glycemic control ([3]; twelve weeks): did not worsen glycemic control
- Changes in diabetes parameters including FPG, HbA1c, insulin and HOMA-IR ([3]; well-controlled, less-controlled and all diabetic subjects, FIG. 4): no statistically significant changes

— patent US9827219B2, “Compositions and methods for lowering levels of high-sensitivity C-reactive protein (HS-CRP) in a subject” (priority 2012, dated 2017)
